Source: patent US20150329515A1, “COMPOSITION AND METHOD FOR TREATING OR PREVENTING INFLUENZA VIRUS INFECTION” (National Defense Medical Center, priority 2014, published 2015)

Key:
[1] = tested on: influenza A/New York/469/2004-like flu (H3N2) virus; assay: in vitro; conditions: dog
in vitro = conditions: dog
[2] = tested on: influenza A/New York/469/2004-like flu (H3N2) virus; assay: microbe, parasite or virus in culture; conditions: H3N2, MDCK, read-out: EC50 (μM), H3N2
[3] = CC50 (μM), Table 4 (H3N2 series), MDCK cells

O=C(O)[C@H]1O[C@@H](Oc2cc3oc(-c4ccccc4)cc(=O)c3c(O)c2O)[C@H](O)[C@@H](O)[C@@H]1O [Baicalin, reference compound]
selectivity ratio at 24 h [1]: > 2.9
CC50 (in vitro; [3]): > 300 µM
EC50 [2]: 104 µM

CCOC(=O)C1=C[C@@H](OC(CC)CC)[C@H](NC(C)=O)[C@@H](N)C1 [oseltamivir, reference compound]
CC50 (in vitro): 320 µM

COc1c(O)cc2oc(-c3ccccc3Br)cc(=O)c2c1O [Compound 5a, 2-(2-Bromophenyl)-5,7-dihydroxy-6-methoxy-4H-chromen-4-one]
selectivity ratio at 24 h [1]: > 17.3
CC50 (in vitro; [3]): > 300 µM
EC50 [2]: 17.3 µM

O=c1cc(-c2ccccc2Br)oc2cc(O)c(O)c(O)c12 [Compound 6a, 2-(2-Bromophenyl)-5,6,7-trihydroxy-4H-chromen-4-one]
melting point: 249 to 251 °C
selectivity ratio at 24 h [1]: > 4.2
CC50 (in vitro; [3]): > 300 µM
EC50 [2]: 71.8 µM

COc1c(O)cc2oc(-c3ccc(Br)cc3)cc(=O)c2c1O [Compound 5c, 2-(4-Bromophenyl)-5,7-dihydroxy-6-methoxy-4H-chromen-4-one]
melting point: 275 to 276 °C
selectivity ratio at 24 h [1]: > 8.7
CC50 (in vitro; [3]): > 300 µM
EC50 [2]: 34.5 µM

NC(=O)c1ncn([C@@H]2O[C@H](CO)[C@@H](O)[C@H]2O)n1 [Ribavirin, reference compound]
selectivity ratio at 24 h [1]: > 11.7
CC50 (in vitro; [3]): > 300 µM
EC50 [2]: 25.6 µM

COc1cc2oc(-c3ccc(Br)cc3)cc(=O)c2c(OC)c1OC [Compound 2m, 2-(4-Bromophenyl)-5,6,7-trimethoxy-4H-chromen-4-one]
melting point: 165 to 166 °C
CC50 (in vitro; [3]): > 300 µM

O=c1cc(-c2ccc(Br)cc2)oc2cc(O)c(O)c(O)c12 [Compound 6c, 2-(4-Bromophenyl)-5,6,7-trihydroxy-4H-chromen-4-one]
selectivity ratio at 24 h [1]: > 8.4
CC50 (in vitro; [3]): > 300 µM
EC50 [2]: 35.9 µM

COc1cc2oc(-c3cccc(Br)c3)cc(=O)c2c(OC)c1OC [Compound 2l, 2-(3-Bromophenyl)-5,6,7-trimethoxy-4H-chromen-4-one]
melting point: 190 to 191 °C
selectivity ratio at 24 h [1]: 0.5
CC50 (in vitro; [3]): 64.1 µM
EC50 [2]: 128 µM

COc1cc2oc(-c3cccc(Br)c3)cc(=O)c2c(O)c1OC [Compound 4b, 2-(3-Bromophenyl)-5-hydroxy-6,7-dimethoxy-4H-chromen-4-one]
melting point: 188 to 189 °C
selectivity ratio at 24 h [1]: 0.5
CC50 (in vitro; [3]): 66.5 µM
EC50 [2]: 133 µM

COc1cc2oc(-c3ccccc3Br)cc(=O)c2c(O)c1OC [Compound 4a, 2-(2-Bromophenyl)-5-hydroxy-6,7-dimethoxy-4H-chromen-4-one]
melting point: 221 to 222 °C
selectivity ratio at 24 h [1]: 1.5
CC50 (in vitro; [3]): 200 µM
EC50 [2]: 133 µM

O=c1cc(-c2cccc(Br)c2)oc2cc(O)c(O)c(O)c12 [Compound 6b, 2-(3-Bromophenyl)-5,6,7-trihydroxy-4H-chromen-4-one]
melting point: 255 to 256 °C
selectivity ratio at 24 h [1]: > 8.4
CC50 (in vitro; [3]): > 300 µM
EC50 [2]: 35.9 µM

COc1c(O)cc2oc(-c3cccc(Br)c3)cc(=O)c2c1O [Compound 5b, 2-(3-Bromophenyl)-5,7-dihydroxy-6-methoxy-4H-chromen-4-one]
selectivity ratio at 24 h [1]: > 17.3
CC50 (in vitro; [3]): > 300 µM
EC50 [2]: 17.3 µM

COc1cc2oc(-c3ccccc3Br)cc(=O)c2c(OC)c1OC [Compound 2k, 2-(2-Bromophenyl)-5,6,7-trimethoxy-4H-chromen-4-one]
melting point: 122 to 123 °C
selectivity ratio at 24 h [1]: 2
CC50 (in vitro; [3]): 128 µM
EC50 [2]: 64.1 µM

COc1cc2oc(-c3ccc(Br)cc3)cc(=O)c2c(O)c1OC [Compound 4c, 2-(4-Bromophenyl)-5-hydroxy-6,7-dimethoxy-4H-chromen-4-one]
melting point: 206 to 208 °C
CC50 (in vitro; [3]): > 300 µM

O=c1cc(-c2ccccc2)oc2cc(O)c(O)c(O)c12 [Baicalein, reference compound]
selectivity ratio at 24 h [1]: > 3.3
CC50 (in vitro; [3]): > 300 µM
EC50 [2]: 92.3 µM
